Measurements: PubChem BioAssay (NCI)
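Each compound was tested at five concentrations against cells in 96-well plates for 48 hours. At the TGI there is no net growth.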

Legend:
Assay in all cases: growth of human tumour cells (NCI), 48 h
[1] = test system: 786-0 renal
[2] = test system: A549 NSCLC
[3] = test system: ACHN renal
[4] = test system: CAKI-1 renal
[5] = test system: COLO 205 colon
[6] = test system: DLD-1 colon
[7] = test system: DMS 114 small cell lung
[8] = test system: DMS 273 small cell lung
[9] = test system: EKVX NSCLC
[10] = test system: HCC-2998 colon
[11] = test system: HCT-116 colon
[12] = test system: HL-60(TB) leukemia
[13] = test system: HOP-18 NSCLC
[14] = test system: HOP-62 NSCLC
[15] = test system: HT29 colon
[16] = test system: KM12 colon
[17] = test system: KM20L2 colon
[18] = test system: LOX IMVI melanoma
[19] = test system: LXFL 529 NSCLC
[20] = test system: M14 melanoma
[21] = test system: M19-MEL melanoma
[22] = test system: MALME-3M melanoma
[23] = test system: NCI-H226 lung
[24] = test system: NCI-H23 lung
[25] = test system: NCI-H460 lung
[26] = test system: NCI-H522 lung
[27] = test system: OVCAR-4 ovarian
[28] = test system: OVCAR-5 ovarian
[29] = test system: OVCAR-8 ovarian
[30] = test system: RXF 393 renal
[31] = test system: SF-268 CNS
[32] = test system: SF-295 CNS
[33] = test system: SF-539 CNS
[34] = test system: SK-MEL-2 melanoma
[35] = test system: SK-MEL-28 melanoma
[36] = test system: SN12C renal
[37] = test system: SNB-19 CNS
[38] = test system: SNB-78 CNS
[39] = test system: SW-620 colon
[40] = test system: TK-10 renal
[41] = test system: U251 CNS
[42] = test system: UACC-257 melanoma
[43] = test system: UO-31 renal
[44] = test system: A498 renal
[45] = test system: CCRF-CEM leukemia
[46] = test system: HCT-15 colon
[47] = test system: HOP-92 NSCLC
[48] = test system: IGROV1 ovarian
[49] = test system: MOLT-4 leukemia
[50] = test system: OVCAR-3 ovarian
[51] = test system: RPMI-8226 leukemia
[52] = test system: SK-MEL-5 melanoma
[53] = test system: SK-OV-3 ovarian
[54] = test system: SNB-75 CNS
[55] = test system: SR leukemia
[56] = test system: UACC-62 melanoma

CC/C=C/c1cc2c(c3[nH]ccc13)[C@@H](C)CC2C (some centres not stated) (tested in a mixture with another compound)
TGI [1]: 33.1 µM
TGI [2]: 39.1 µM
TGI [3]: 31.7 µM
TGI [4]: 31.7 µM
TGI [5]: 39.7 µM
TGI [6]: 26.3 µM
TGI [7]: 35.6 µM
TGI [8]: 29.4 µM
TGI [9]: 36 µM
TGI [10]: 10 µM
TGI [11]: 33.8 µM
TGI [12]: 44.5 µM
TGI [13]: 26.5 µM
TGI [14]: 32.8 µM
TGI [15]: 28.4 µM
TGI [16]: 32.2 µM
TGI [17]: 29.3 µM
TGI [18]: 29.4 µM
TGI [19]: 30 µM
TGI [20]: 29.3 µM
TGI [21]: 35.3 µM
TGI [22]: 36 µM
TGI [23]: 28.8 µM
TGI [24]: 33.1 µM
TGI [25]: 29.5 µM
TGI [26]: 30.9 µM
TGI [27]: 28.9 µM
TGI [28]: 34.1 µM
TGI [29]: 31.4 µM
TGI [30]: 25.7 µM
TGI [31]: 32 µM
TGI [32]: 30.2 µM
TGI [33]: 33.6 µM
TGI [34]: 29.6 µM
TGI [35]: 30.2 µM
TGI [36]: 28.8 µM
TGI [37]: 33.8 µM
TGI [38]: 32.3 µM
TGI [39]: 32.3 µM
TGI [40]: 36.9 µM
TGI [41]: 31.9 µM
TGI [42]: 29.8 µM
TGI [43]: 31 µM

O=C1CC2C=CC1C2CO (configuration not stated)
TGI [1]: > 100 µM
TGI [44]: > 100 µM
TGI [2]: > 100 µM
TGI [3]: > 100 µM
TGI [4]: > 100 µM
TGI [45]: > 100 µM
TGI [5]: > 100 µM
TGI [6]: > 100 µM
TGI [7]: > 100 µM
TGI [8]: > 100 µM
TGI [9]: > 100 µM
TGI [10]: > 100 µM
TGI [11]: > 100 µM
TGI [46]: > 100 µM
TGI [12]: > 100 µM
TGI [13]: > 100 µM
TGI [14]: > 100 µM
TGI [47]: > 100 µM
TGI [15]: > 100 µM
TGI [48]: > 100 µM
TGI [16]: > 100 µM
TGI [17]: > 100 µM
TGI [18]: > 100 µM
TGI [19]: > 100 µM
TGI [20]: > 100 µM
TGI [21]: > 100 µM
TGI [22]: > 100 µM
TGI [49]: > 100 µM
TGI [23]: > 100 µM
TGI [25]: > 100 µM
TGI [26]: > 100 µM
TGI [50]: > 100 µM
TGI [27]: > 100 µM
TGI [28]: > 100 µM
TGI [29]: > 100 µM
TGI [51]: > 100 µM
TGI [30]: > 100 µM
TGI [31]: > 100 µM
TGI [32]: > 100 µM
TGI [33]: > 100 µM
TGI [35]: > 100 µM
TGI [52]: > 100 µM
TGI [53]: > 100 µM
TGI [36]: > 100 µM
TGI [37]: > 100 µM
TGI [54]: > 100 µM
TGI [38]: > 100 µM
TGI [55]: > 100 µM
TGI [39]: > 100 µM
TGI [40]: > 100 µM
TGI [41]: > 100 µM
TGI [42]: > 100 µM
TGI [56]: > 100 µM
TGI [43]: > 100 µM
